Assay results from US8227513B2, “Food composition for binding acetaldehyde in mouth and in digestive track, and method for the preparation of the composition” (Biohit Oyj, priority 2005, dated 2012).

Assay: capability of cysteine to bind acetaldehyde from beers and yoghurts (gas chromatograph)
Conditions: for acetaldehyde concentration after the treatment: incubated 5 min at room temperature
Protocol: In the test, the capability of cysteine to bind acetaldehyde from light alcohol drinks and milk products, such as yoghurt, was examined. The amounts of acetaldehyde in four Finnish yoghurts and three beers were measured by means of a standardized method (Homann et al. 1997. High acetaldehyde levels in saliva after ethanol consumption: Methodological aspects and pathogenic implications. Carcinogenesis 18:1739-1743). The average acetaldehyde concentration (±SEM) in the beers was 146±30 μM. L-cysteine was added to the beers so that the final cysteine concentration of the product was 0 (the control), 0.1, 3 and 10 mM (i.e., 0 mg/l, 12.1 mg/l, 363 mg/l and 1210 mg/l); thereafter, the beers were incubated for 5 min at room temperature. Thereafter, the acetaldehyde contents were measured by means of a gas chromatograph. The acetaldehyde concentrations after the treatment were 146±30 μM, 133±32 μM, 26±9 μM and 10±3 μM, correspondingly. In the yoghurt, the acetaldehyde concentrations were 419±53 μM, on an average. L-cysteine was added so that the cysteine concentrations in the final product were 0 (the control), 0.1, 3 and 10 mM (i.e., 0 mg/l, 12.1 mg/l, 363 mg/l, and 1210 mg/l); thereafter, the yoghurts were incubated for 5 min at room temperature. The acetaldehyde concentrations after the treatment were 419±53 μM, 240±42 μM, 55±15 μM, and 15±2 μM.

N[C@@H](CS)C(=O)O [L-cysteine]
acetaldehyde concentration after the treatment (beers (control 146±30 μM), final cysteine concentration 0.1 mM (12.1 mg/l), mean ±SEM): 133 ± 32 µM | acetaldehyde concentration after the treatment (beers (control 146±30 μM), final cysteine concentration 3 mM (363 mg/l), mean ±SEM): 26 ± 9 µM | acetaldehyde concentration after the treatment (beers (control 146±30 μM), final cysteine concentration 10 mM (1210 mg/l), mean ±SEM): 10 ± 3 µM | acetaldehyde in the products eliminated (the products (beers and yoghurts), 3 mM of cysteine (363 mg/l)): over 80% | acetaldehyde concentration after the treatment (yoghurts (control 419±53 μM), cysteine concentration 0.1 mM (12.1 mg/l)): 240 ± 42 µM | acetaldehyde concentration after the treatment (yoghurts (control 419±53 μM), cysteine concentration 3 mM (363 mg/l)): 55 ± 15 µM | acetaldehyde concentration after the treatment (yoghurts (control 419±53 μM), cysteine concentration 10 mM (1210 mg/l)): 15 ± 2 µM
